Columns and labels:
[1] = target: T1, cloned human 5-HT1A receptors (Homo sapiens, UniProt P08908); experiment: Inhibition of 3H-5-CT binding to human 5-HT1A receptors; conditions: cloned human 5-HT1A receptors expressed in HeLa cells (HA7)
T1 construct: expressed in transfected cells; host or cells: HeLa cells (HA7), stably transfected; cell homogenate
T1 sequence (P08908 1-422): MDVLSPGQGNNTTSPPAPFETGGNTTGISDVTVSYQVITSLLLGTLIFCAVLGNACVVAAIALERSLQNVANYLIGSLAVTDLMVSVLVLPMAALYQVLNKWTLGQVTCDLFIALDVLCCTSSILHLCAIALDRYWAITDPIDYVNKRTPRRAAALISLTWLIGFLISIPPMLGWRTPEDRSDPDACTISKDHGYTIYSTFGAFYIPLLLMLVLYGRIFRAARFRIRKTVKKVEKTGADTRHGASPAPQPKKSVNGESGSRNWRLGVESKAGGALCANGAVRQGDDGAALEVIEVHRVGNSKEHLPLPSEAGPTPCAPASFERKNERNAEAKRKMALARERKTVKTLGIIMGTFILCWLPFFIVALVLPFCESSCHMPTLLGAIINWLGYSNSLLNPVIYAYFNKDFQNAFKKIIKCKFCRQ
Method: Inhibition of ^3H-5CT Binding to Human 5-HT1A Receptors
Human 5-HT1A receptors (40 μg of cell homogenate) were incubated for 15 minutes at 37° C. in 50 mM Tris buffer at pH 7.7 in the presence of ^3H-5-CT. Non-specific binding was determined by including 10 μM of metergoline. The reaction was terminated by rapid filtration through Unifilter GF/B filters on a Tomtec Cell Harvester. Filters were counted in a Packard Top Counter.

[2] = tested on: serotonin reuptake (3H-5-HT uptake into whole rat brain synaptosomes); experiment: Inhibition of 3H-5-HT uptake into rat brain synaptosomes; format: biochemical
Method: Inhibition of ^3H-5HT Uptake Into Rat Brain Synaptosomes
Using this method, the ability of drugs to inhibit the accumulation of ^3H-5-HT into whole rat brain synaptosomes is determined in vitro.

Compound: CN(CCCC1(c2ccc(F)cc2)OCc2cc(C#N)ccc21)Cc1cccc2c1OCCO2.O=C(O)C(=O)O (centres unmarked)
- melting point: 160 to 162 °C

Compound: CN(CCCc1cccc2c1OCCO2)CCCC1(c2ccc(F)cc2)OCc2cc(F)ccc21.O=C(O)C(=O)O (centres unmarked)
- melting point: 131 to 133 °C

Compound: CN(CCCc1cccc2c1OCCO2)CCCC1(c2ccc(F)cc2)OCc2cc(C#N)ccc21.O=C(O)C(=O)O (single isomer, unassigned; (+)) [Compound 1b, (+)-1-[3-[[3-(1,4-Benzodioxan-5-yl)propyl]methylamino]propyl]-1-(4-fluorophenyl)-1,3-dihydroisobenzofuran-5-carbonitrile oxalate]
- melting point: 114 to 116 °C
- IC50 [1]: 12 nM

Compound: CN(CCCC1(c2ccc(F)cc2)OCc2cc(C#N)ccc21)CCc1cccc2c1OCCO2.O=C(O)C(=O)O (centres unmarked) [Compound 1c, 1-[3-[[2-(1,4-Benzodioxan-5-yl)ethyl]methylamino]propyl]-1-(4-fluorophenyl)-1,3-dihydroisobenzofuran-5carbonitrile oxalate]
- melting point: 118 to 120 °C
- IC50 [1]: 53 nM

Compound: CCN(CCCC1(c2ccc(F)cc2)OCc2cc(C#N)ccc21)CCc1c[nH]c2c(F)cc(F)cc12 (centres unmarked) [Compound 12u, 1-[3-[[2-(5,7-Difluoro-1H-indol-3-yl)ethyl]ethylamino]propyl]-1-(4-fluorophenyl)-1,3-dihydroisobenzofuran-5-carbonitrile]
- IC50 [1]: 9 nM
- IC50 [2]: 22 nM

Compound: CCN(CCCCc1c[nH]c2ccc(F)cc12)CCCC1(c2ccc(F)cc2)OCc2cc(C#N)ccc21 (centres unmarked) [Compound 12v, 1-[3-[[4-(5-Fluoro-1H-indol-3-yl)butyl]ethylamino]propyl]-1-(4-fluorophenyl)-1,3-dihydroisobenzofuran-5-carbonitrile]
- IC50 [1]: 39 nM
- IC50 [2]: 12 nM

Compound: CCN(CCCc1c[nH]c2ccc(Cl)cc12)CCCC1(c2ccc(F)cc2)OCc2cc(C#N)ccc21 (centres unmarked) [Compound 12x, 1-[3-[[3-(5-Chloro-1H-indol-3-yl)propyl]ethylamino]propyl]-1-(4-fluorophenyl)-1,3-dihydroisobenzofuran-5-carbonitrile]
- IC50 [1]: 14 nM
- Inhibition of serotonin reuptake % inhibition at 100 nM [2]: 50% inh. at 100 nM

Compound: C=CCN(CCCC1(c2ccc(F)cc2)OCc2cc(C#N)ccc21)CCc1c[nH]c2ccc(F)cc12 (centres unmarked) [Compound 13b, 1-[3-[[2-(5-Fluoro-1H-indol-3-yl)ethyl](prop-2-en-1-yl)amino]propyl]-1-(4-fluorophenyl)-1,3-dihydroisobenzofuran-5-carbonitrile]
- IC50 [1]: 7.4 nM
- IC50 [2]: 44 nM

Compound: C=CCN(CCCC1(c2ccc(F)cc2)OCc2cc(C#N)ccc21)CCc1c[nH]c2c(F)cccc12 (centres unmarked) [Compound 13c, 1-[3-[[2-(7-Fluoro-1H-indol-3-yl)ethyl](prop-2-en-1-yl)amino]propyl]-1-(4-fluorophenyl)-1,3-dihydroisobenzofuran-5-carbonitrile]
- IC50 [1]: 9.6 nM
- IC50 [2]: 12 nM

Compound: C=CCN(CCCc1c[nH]c2ccc(F)cc12)CCCC1(c2ccc(F)cc2)OCc2cc(C#N)ccc21 (centres unmarked) [Compound 13d, 1-[3-[[3-(5-Fluoro-1H-indol-3-yl)propyl](prop-2-en-1-yl)amino]propyl]-1-(4-fluorophenyl)-1,3-dihydroisobenzofuran-5-carbonitrile]
- IC50 [1]: 15 nM
- IC50 [2]: 21 nM

Compound: C=CCN(CCCc1c[nH]c2c(F)cccc12)CCCC1(c2ccc(F)cc2)OCc2cc(C#N)ccc21 (centres unmarked) [Compound 13e, 1-[3-[[3-(7-Fluoro-1H-indol-3-yl)propyl](prop-2-en-1-yl)amino]propyl]-1-(4-fluorophenyl)-1,3-dihydroisobenzofuran-5-carbonitrile]
- IC50 [1]: 22 nM
- IC50 [2]: 27 nM

Compound: C=CCN(CCCC1(c2ccc(F)cc2)OCc2cc(C#N)ccc21)CCc1c[nH]c2ccc(Cl)cc12 (centres unmarked) [Compound 13f]
- IC50 [1]: 31 nM
- Inhibition of serotonin reuptake % inhibition at 100 nM [2]: 16% inh. at 100 nM

Compound: CCCN(CCCC1(c2ccc(F)cc2)OCc2cc(C#N)ccc21)CCc1c[nH]c2c(F)cc(F)cc12 (centres unmarked) [Compound 13g, 1-[3-[[2-(5,7-Difluoro-1H-indol-3-yl)ethyl]propylamino]propyl]-1-(4-fluorophenyl)-1,3-dihydroisobenzofuran-5-carbonitrile]
- IC50 [1]: 18 nM
- Inhibition of serotonin reuptake % inhibition at 100 nM [2]: 49% inh. at 100 nM

Compound: C=CCN(CCCC1(c2ccc(F)cc2)OCc2cc(C#N)ccc21)CCc1c[nH]c2c(C)ccc(Cl)c12 (centres unmarked) [Compound 13j, 1-[3-[[2-(4-Chloro-7-methyl-1H-indol-3-yl)ethyl](prop-2-en-1-yl)amino]propyl]-1-(4-fluorophenyl)-1,3-dihydroisobenzofuran-5-carbonitrile]
- IC50 [1]: 16 nM
- Inhibition of serotonin reuptake % inhibition at 100 nM [2]: 61% inh. at 100 nM

Reference: patent US6492374B2, “Benzofuran derivatives, their preparation and use” (H. Lundbeck A/S, priority 1998, dated 2002)
